Results: US20260207623A1, “USE OF ESTETROL IN HEPATICALLY IMPAIRED PATIENTS” (ESTETRA SRL, priority 2022, published 2026)

Tests used:
Type in all cases: in vivo, human
post-menopausal women [1] = experiment: Example 2 dose-finding study: Hot Flush Weekly Weighted Score
Experimental: Further, the terms “Hot Flush Weekly Weighted Score”, as used herein, corresponds to a score taking into account frequency and severity which is calculated by using the severity score (as calculated above): [(1×No. of mild VMS)+(2×No. of moderate VMS)+(3×No. of severe VMS)] during a 7 day period.
All treatments (Estetrol, hereinafter E4 as monohydrate, [2.5 mg, 5 mg, 10 mg, 15 mg] capsule) were administered once daily (QD) per os for at least 12 consecutive weeks until the last biological assessments (Day 91 maximum) had been performed.
A further analysis of the results was thus prepared, where data from these two doses were grouped with the placebo dose and compared to the 10 mg and 15 mg estetrol monohydrate doses.

post-menopausal women [2] = experiment: Example 3: severity of moderate to severe VMS; settings: 15 mg and 20 mg vs placebo; weeks 4 and 12 (FIG. 12)
Experimental: (§1) A further clinical study was designed to evaluate the effect of 15 or 20 mg estetrol (E4) monohydrate, or placebo on the severity and frequency of vasomotor symptoms (VMS) and the safety of E4 20 mg. The inclusion and exclusion criteria as described for Example 2 were maintained for the present Example (i.e. Example 3).
(§2) • 1. Mean change in weekly frequency of moderate to severe vasomotor symptoms (VMS) from Baseline to Week 4 (Efficacy Study Part) [Time Frame: Baseline and Week 4]: • The weekly frequency of moderate to severe VMS at Baseline and Week 4 is defined as the total number (sum) of all recorded moderate to severe VMS experienced during the last 7 consecutive days prior randomization for Baseline and at Week 4. Mean change=mean weekly frequency at Week 4-mean weekly frequency at Baseline. • 2. Mean change in weekly frequency of moderate to severe vasomotor symptoms (VMS) from Baseline to Week 12 (Efficacy Study Part) [Time Frame: Baseline and Week 12] • The weekly frequency of moderate to severe VMS at Baseline and Week 12 is defined as the total number (sum) of all recorded moderate to severe VMS experienced during the last 7 consecutive days prior randomization for Baseline and at Week 12. Mean change=mean weekly frequency at Week 12-mean weekly frequency at Baseline. • 3. […]

post-menopausal women [3] = experiment: Example 3 (15 mg, 20 mg E4 monohydrate or placebo): weekly frequency of moderate to severe VMS and responder proportions
Experimental: as §1, §2

C[C@]12CC[C@@H]3c4ccc(O)cc4CC[C@H]3[C@@H]1[C@@H](O)[C@@H](O)[C@@H]2O [E4 monohydrate, estetrol monohydrate]
Hot Flush Weekly Weighted Score, relative change (% from baseline), Mean (post-menopausal women [1]; 2.5 mg daily, week 0): 0%
Hot Flush Weekly Weighted Score, relative change (% from baseline), Mean (post-menopausal women [1]; 2.5 mg daily, week 1): −22%
Hot Flush Weekly Weighted Score, relative change (% from baseline), Mean (post-menopausal women [1]; 2.5 mg daily, week 2): −32%
Hot Flush Weekly Weighted Score, relative change (% from baseline), Mean (post-menopausal women [1]; 2.5 mg daily, week 3): −43%
Hot Flush Weekly Weighted Score, relative change (% from baseline), Mean (post-menopausal women [1]; 2.5 mg daily, week 4): −47%
Hot Flush Weekly Weighted Score, relative change (% from baseline), Mean (post-menopausal women [1]; 2.5 mg daily, week 5): −48%
Hot Flush Weekly Weighted Score, relative change (% from baseline), Mean (post-menopausal women [1]; 2.5 mg daily, week 6): −51%
Hot Flush Weekly Weighted Score, relative change (% from baseline), Mean (post-menopausal women [1]; 2.5 mg daily, week 7): −53%
Hot Flush Weekly Weighted Score, relative change (% from baseline), Mean (post-menopausal women [1]; 2.5 mg daily, week 8): −55%
Hot Flush Weekly Weighted Score, relative change (% from baseline), Mean (post-menopausal women [1]; 2.5 mg daily, week 9): −57%
Hot Flush Weekly Weighted Score, relative change (% from baseline), Mean (post-menopausal women [1]; 2.5 mg daily, week 10): −57%
Hot Flush Weekly Weighted Score, relative change (% from baseline), Mean (post-menopausal women [1]; 2.5 mg daily, week 11): −56%
Hot Flush Weekly Weighted Score, relative change (% from baseline), Mean (post-menopausal women [1]; 2.5 mg daily, week 12): −57%
Hot Flush Weekly Weighted Score, relative change (% from baseline), Mean (post-menopausal women [1]; 5 mg daily, week 0): 0%
Hot Flush Weekly Weighted Score, relative change (% from baseline), Mean (post-menopausal women [1]; 5 mg daily, week 1): −22%
Hot Flush Weekly Weighted Score, relative change (% from baseline), Mean (post-menopausal women [1]; 5 mg daily, week 2): −32%
Hot Flush Weekly Weighted Score, relative change (% from baseline), Mean (post-menopausal women [1]; 5 mg daily, week 3): −37%
Hot Flush Weekly Weighted Score, relative change (% from baseline), Mean (post-menopausal women [1]; 5 mg daily, week 4): −43%
Hot Flush Weekly Weighted Score, relative change (% from baseline), Mean (post-menopausal women [1]; 5 mg daily, week 5): −46%
Hot Flush Weekly Weighted Score, relative change (% from baseline), Mean (post-menopausal women [1]; 5 mg daily, week 6): −56%
Hot Flush Weekly Weighted Score, relative change (% from baseline), Mean (post-menopausal women [1]; 5 mg daily, week 7): −56%
Hot Flush Weekly Weighted Score, relative change (% from baseline), Mean (post-menopausal women [1]; 5 mg daily, week 8): −56%
Hot Flush Weekly Weighted Score, relative change (% from baseline), Mean (post-menopausal women [1]; 5 mg daily, week 9): −58%
Hot Flush Weekly Weighted Score, relative change (% from baseline), Mean (post-menopausal women [1]; 5 mg daily, week 10): −59%
Hot Flush Weekly Weighted Score, relative change (% from baseline), Mean (post-menopausal women [1]; 5 mg daily, week 11): −61%
Hot Flush Weekly Weighted Score, relative change (% from baseline), Mean (post-menopausal women [1]; 5 mg daily, week 12): −60%
Hot Flush Weekly Weighted Score, relative change (% from baseline), Mean (post-menopausal women [1]; 10 mg daily, week 0): 0%
Hot Flush Weekly Weighted Score, relative change (% from baseline), Mean (post-menopausal women [1]; 10 mg daily, week 0, section B analysis): 0%
Hot Flush Weekly Weighted Score, relative change (% from baseline), Mean (post-menopausal women [1]; 10 mg daily, week 1): −20%
Hot Flush Weekly Weighted Score, relative change (% from baseline), Mean (post-menopausal women [1]; 10 mg daily, week 1, section B analysis): −20%
Hot Flush Weekly Weighted Score, relative change (% from baseline), Mean (post-menopausal women [1]; 10 mg daily, week 2): −35%
Hot Flush Weekly Weighted Score, relative change (% from baseline), Mean (post-menopausal women [1]; 10 mg daily, week 3): −47%
Hot Flush Weekly Weighted Score, relative change (% from baseline), Mean (post-menopausal women [1]; 10 mg daily, week 4): −54%
Hot Flush Weekly Weighted Score, relative change (% from baseline), Mean (post-menopausal women [1]; 10 mg daily, week 5): −58%
Hot Flush Weekly Weighted Score, relative change (% from baseline), Mean (post-menopausal women [1]; 10 mg daily, week 7): −64%
Hot Flush Weekly Weighted Score, relative change (% from baseline), Mean (post-menopausal women [1]; 10 mg daily, week 7, section B analysis): −64%
Hot Flush Weekly Weighted Score, relative change (% from baseline), Mean (post-menopausal women [1]; 10 mg daily, week 8, section B analysis): −66%
Hot Flush Weekly Weighted Score, relative change (% from baseline), Mean (post-menopausal women [1]; 10 mg daily, week 9): −67%
Hot Flush Weekly Weighted Score, relative change (% from baseline), Mean (post-menopausal women [1]; 10 mg daily, week 9, section B analysis): −66%
Hot Flush Weekly Weighted Score, relative change (% from baseline), Mean (post-menopausal women [1]; 10 mg daily, week 10, section B analysis): −68%
Hot Flush Weekly Weighted Score, relative change (% from baseline), Mean (post-menopausal women [1]; 10 mg daily, week 11): −69%
Hot Flush Weekly Weighted Score, relative change (% from baseline), Mean (post-menopausal women [1]; 10 mg daily, week 11, section B analysis): −68%
Hot Flush Weekly Weighted Score, relative change (% from baseline), Mean (post-menopausal women [1]; 10 mg daily, week 12): −70%
Hot Flush Weekly Weighted Score, relative change (% from baseline), Mean (post-menopausal women [1]; 10 mg daily, week 12, section B analysis): −69%
Hot Flush Weekly Weighted Score, relative change (% from baseline), Mean (post-menopausal women [1]; 15 mg daily, week 0): 0%
Hot Flush Weekly Weighted Score, relative change (% from baseline), Mean (post-menopausal women [1]; 15 mg daily, week 0, section B analysis): 0%
Hot Flush Weekly Weighted Score, relative change (% from baseline), Mean (post-menopausal women [1]; 15 mg daily, week 1): −19%
Hot Flush Weekly Weighted Score, relative change (% from baseline), Mean (post-menopausal women [1]; 15 mg daily, week 1, section B analysis): −22%
Hot Flush Weekly Weighted Score, relative change (% from baseline), Mean (post-menopausal women [1]; 15 mg daily, week 2): −43%
Hot Flush Weekly Weighted Score, relative change (% from baseline), Mean (post-menopausal women [1]; 15 mg daily, week 3, section B analysis): −56%
Hot Flush Weekly Weighted Score, relative change (% from baseline), Mean (post-menopausal women [1]; 15 mg daily, week 4, section B analysis): −66%
Hot Flush Weekly Weighted Score, relative change (% from baseline), Mean (post-menopausal women [1]; 15 mg daily, week 5, section B analysis): −70%
Hot Flush Weekly Weighted Score, relative change (% from baseline), Mean (post-menopausal women [1]; 15 mg daily, week 6): −74%
Hot Flush Weekly Weighted Score, relative change (% from baseline), Mean (post-menopausal women [1]; 15 mg daily, week 6, section B analysis): −72%
Hot Flush Weekly Weighted Score, relative change (% from baseline), Mean (post-menopausal women [1]; 15 mg daily, week 8): −78%
Hot Flush Weekly Weighted Score, relative change (% from baseline), Mean (post-menopausal women [1]; 15 mg daily, week 8, section B analysis): −76%
Hot Flush Weekly Weighted Score, relative change (% from baseline), Mean (post-menopausal women [1]; 15 mg daily, week 9): −80%
Hot Flush Weekly Weighted Score, relative change (% from baseline), Mean (post-menopausal women [1]; 15 mg daily, week 9, section B analysis): −78%
Hot Flush Weekly Weighted Score, relative change (% from baseline), Mean (post-menopausal women [1]; 15 mg daily, week 10): −79%
Hot Flush Weekly Weighted Score, relative change (% from baseline), Mean (post-menopausal women [1]; 15 mg daily, week 11): −80%
Hot Flush Weekly Weighted Score, relative change (% from baseline), Mean (post-menopausal women [1]; 15 mg daily, week 11, section B analysis): −79%
Hot Flush Weekly Weighted Score, relative change (% from baseline), Mean (post-menopausal women [1]; 15 mg daily, week 12): −82%
Hot Flush Weekly Weighted Score, relative change (% from baseline), Mean (post-menopausal women [1]; 15 mg daily, week 12, section B analysis): −81%
severity of moderate to severe VMS (post-menopausal women [2]): significantly decreased

C[C@]12CC[C@@H]3c4ccc(O)cc4CC[C@H]3[C@@H]1[C@@H](O)[C@@H](O)[C@@H]2O [E4, 1,3,5 (10)-estratrien-3,15alpha, 16alpha, 17beta-tetrol]
frequency of moderate to severe VMS (post-menopausal women [3]; 15 mg and 20 mg vs placebo, weeks 4 and 12 (FIG. 10)): significantly decreased
number of women with reduced VMS frequency (at least 50% or 75% reduction) vs placebo (post-menopausal women [3]; FIG. 11): higher number of women that experienced a reduced VMS frequency than placebo
